Columns and labels:
[1] = Stability at 40° C. and 75% relative humidity (percent purity by HPLC); format: physicochemical; settings: 40° C. and 75% RH; for Percent Purity of 17-BAG T = 0 Days / Percent Purity of 17-BAG T = 21 Days: Table 4
Experimental: As used herein, a “stable composition” refers a composition comprising a sulfur-containing compound and a baseline amount of the compound of formula (I) (e.g., such as percent purity as measured by HPLC) such that, after being subjected to standard stability conditions (e.g., 40° C. and 75% relative humidity) for a specified period of time (e.g., 1 day, 2 days, 3 days, 4 days, 5 days, 7 days, 14 days, 21 days, or 30 days), at least about 80% of the original amount of the compound of formula (I) remains in the composition (i.e., has not oxidized to a compound of formula (II) or degraded to other by-products). In certain embodiments, at least about 85%, at least about 90%, at least about 91%, at least about 92%, at least about 93%, at least about 94%, or at least about 95% of the original amount of the hydroquinone compound of formula (I) remains in the composition for a specified period of time (e.g., 1 day, 2 days, 3 days, 4 days, 5 days, 7 days, 14 days, 21 days, or 30 days).
The stability data for 17-AG-HQ of Example 2 when kept at 40° C. and 75% relative humidity (RH) is depicted in FIG. 8 (see Table 2 for tabulated stability data). It was observed that 17-AG-HQ of Example 2 completely oxidizes to its quinone form in two weeks at 40° C. and […] as determined by HPLC.

[2] = Solubilizing or suspending agents: color change as indication of oxidation of 17-AG-HQ to 17-AG; format: physicochemical; settings: argon headspace, checked up to one hour
Experimental: Solvents (2 mL) were pipetted out into labeled vials (Table 4). After purging the headspace with argon, the solvent vials were chilled at 4° C. for 1 hour. 17-AG-HQ of Example 2 (10 mg) was added each solvent vial and headspace was purged again with argon. The vials were checked for color change for up to one hour. Color change is an indication of stability: 17-AG-HQ is yellow while 17-AG is pink, thus a color change from yellow to pink would indicate oxidation of 17-AG-HQ to 17-AG. This listing of suitable solvents or suspending agents is also applicable for solvating/suspending the hydroquinones of Examples 3-6, 8, 10 or 11.

[3] = Table 12, formulations of 17-AG-HQ of Example 2

CO[C@H]1/C=C\C=C(/C)C(=O)Nc2cc(O)c(N)c(c2O)C[C@@H](C)C[C@H](OC)[C@H](O)[C@@H](C)/C=C(\C)[C@@H]1OC(N)=O [17-AG-HQ of Example 2, 17-amino-geldanamycin hydroquinone]
time in which the hydroquinone completely oxidizes to its quinone form ([1]; determined by HPLC): two
stability compared to 17-AG-HQ HCl salt of Example 1 ([1]; more prone to oxidation): less stable
Percent Purity of 17-AG-HQ T = 0 Days ([1]; Table 2, T = 0 Days): 92%
Percent Purity of 17-AG-HQ T = 2 Days ([1]; Table 2): 66%
Percent Purity of 17-AG-HQ T = 5 Days ([1]; Table 2): 22%
Percent Purity of 17-AG-HQ T = 14 Days ([1]; Table 2): 0%
Percent Purity of 17-AG-HQ T = 30 Days ([1]; Table 2): 0%
Percent Purity of 17-AG-HQ T = 0 Days ([1]; Table 12, formulations of 17-AG-HQ of Example 2, T = 0 Days): 92%
Percent Purity of 17-AG-HQ T = 2 Days [1, 3]: 66%
Percent Purity of 17-AG-HQ T = 5 Days [1, 3]: 22%
Percent Purity of 17-AG-HQ T = 14 Days [1, 3]: 0%
Percent Purity of 17-AG-HQ T = 30 Days [1, 3]: 0%
Observations ([2]; Acetone, 10 mg in 2 mL solvent chilled at 4° C.): Dissolves with no color change
Observations ([2]; DMSO:Acetonitrile:TFA (80:20:0.1), 10 mg in 2 mL solvent chilled at 4° C.): Dissolves with color change to rusty
Observations ([2]; Dichloromethane, 10 mg in 2 mL solvent chilled at 4° C.): Dissolves with no color change
Observations ([2]; Ethanol, 10 mg in 2 mL solvent chilled at 4° C.): Dissolves with no color change
Observations ([2]; Methanol, 10 mg in 2 mL solvent chilled at 4° C.): Dissolves with color change to red
Observations ([2]; Mineral Oil, 10 mg in 2 mL chilled at 4° C.): Suspends with no color change
Observations ([2]; Propylene Glycol, 10 mg in 2 mL solvent chilled at 4° C.): Dissolves with color change to rusty
Observations ([2]; Toluene, 10 mg in 2 mL solvent chilled at 4° C.): Dissolves with no color change
Observations ([2]; Xylene, 10 mg in 2 mL solvent chilled at 4° C.): Dissolves with no color change

CO[C@H]1/C=C\C=C(/C)C(=O)Nc2cc(O)c(NCc3ccccc3)c(c2O)C[C@@H](C)C[C@H](OC)[C@H](O)[C@@H](C)/C=C(\C)[C@@H]1OC(N)=O [17-BAG-HQ of Example 8B, 17-benzylamino-geldanamycin hydroquinone]
Percent Purity of 17-BAG T = 0 Days ([1]; T = 0 Days): 98%
Percent Purity of 17-BAG T = 21 Days ([1]; T = 21 Days): 11%
Percent Purity of 17-BAG-HQ T = 0 Days ([1]; Table 17, Example 8B Formulations, T = 0 Days): 98%
Percent Purity of 17-BAG-HQ T = 21 Days ([1]; Table 17, Example 8B Formulations, T = 21 Days): 11%

CO[C@H]1/C=C\C=C(/C)C(=O)Nc2cc(O)c(N)c(c2O)C[C@@H](C)C[C@H](OC)[C@H](O)[C@@H](C)/C=C(\C)[C@@H]1OC(N)=O [17-AG-HQ of Example 5, 17-amino-geldanamycin hydroquinone]
stability over a period of time compared to Examples 2, 3 and 4 [1]: greatest stability
Percent Purity of 17-AG-HQ T = 0 Days ([1]; Table 2, T = 0 Days): 99%
Percent Purity of 17-AG-HQ T = 30 Days ([1]; Table 2): 98%

CO[C@H]1/C=C\C=C(/C)C(=O)Nc2cc(O)c(NCCF)c(c2O)C[C@@H](C)C[C@H](OC)[C@H](O)[C@@H](C)/C=C(\C)[C@@H]1OC(N)=O [17-FEAG-HQ of Example 10B, 17-(2-fluoroethylamino)-geldanamycin hydroquinone]
Percent Purity of 17-FEAG T = 0 Days ([1]; Table 6, T = 0 Days): 97%
Percent Purity of 17-FEAG T = 21 Days ([1]; Table 6, T = 21 Days): 0%
Percent Purity of 17-FEAG-HQ T = 0 Days ([1]; Table 18, Example 10B Formulations, T = 0 Days): 97%
Percent Purity of 17-FEAG-HQ T = 21 Days ([1]; Table 18, Example 10B Formulations, T = 21 Days): 0%

CO[C@H]1/C=C\C=C(/C)C(=O)Nc2cc(O)c(NCc3ccccc3)c(c2O)C[C@@H](C)C[C@H](OC)[C@H](O)[C@@H](C)/C=C(\C)[C@@H]1OC(N)=O [17-BAG-HQ of Example 8A, 17-benzylamino-geldanamycin hydroquinone]
stability over a period of time compared to 17-BAG-HQ of Example 8B [1]: greater stability
Percent Purity of 17-BAG T = 0 Days ([1]; T = 0 Days): 98%
Percent Purity of 17-BAG T = 21 Days ([1]; T = 21 Days): 96%

From patent US8778921B2, “Ansamycin hydroquinone compositions” (Infinity Pharmaceuticals, Inc., priority 2008, dated 2014)
